{"source": "patent US20250230193A1", "about": "“CYCLIC COMPOUND HAVING SELECTIVE KRAS INHIBITORY EFFECT ON HRAS AND NRAS” (CHUGAI SEIYAKU KABUSHIKI KAISHA, priority 2022, published 2025)", "key": {"[1]": {"target": "GDP-bound NRAS wild-type protein (Homo sapiens, UniProt P01111)", "sequence (P01111 whole entry)": "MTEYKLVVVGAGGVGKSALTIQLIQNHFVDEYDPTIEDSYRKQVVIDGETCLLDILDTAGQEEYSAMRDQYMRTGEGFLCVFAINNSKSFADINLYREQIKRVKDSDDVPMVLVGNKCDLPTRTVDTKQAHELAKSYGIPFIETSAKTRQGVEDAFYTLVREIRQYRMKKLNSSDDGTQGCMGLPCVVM", "experiment": "Binding to NRAS by surface plasmon resonance (SPR), Single Cycle Kinetics", "conditions": "for NRAS/KRAS (ratio of KD value with respect to GDP-bound NRAS wild-type protein to KD value with respect to KRAS): class symbols"}, "[2]": {"target": "GDP-bound HRAS wild-type protein (Homo sapiens, UniProt P01112)", "sequence (P01112 whole entry)": "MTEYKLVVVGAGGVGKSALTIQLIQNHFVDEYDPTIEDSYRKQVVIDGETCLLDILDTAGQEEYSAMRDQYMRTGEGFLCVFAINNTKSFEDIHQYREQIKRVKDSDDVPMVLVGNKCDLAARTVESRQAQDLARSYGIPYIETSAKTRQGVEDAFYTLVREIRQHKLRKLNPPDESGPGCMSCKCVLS", "experiment": "Binding to HRAS by surface plasmon resonance (SPR), Single Cycle Kinetics", "conditions": "for HRAS/KRAS (ratio of KD value with respect to GDP-bound HRAS wild-type protein to KD value with respect to KRAS): class symbols"}, "[3]": {"conditions": "SPR, GDP-bound NRAS wild-type vs GDP-bound KRAS wild-type"}, "[4]": {"conditions": "SPR, GDP-bound HRAS wild-type vs GDP-bound KRAS wild-type"}}, "note": "*1 amine or outer side, *2 acyl side, *3 side chain or, on linkers, in order; H or OH if unused. Where a SMILES comes first, the peptide text is derived from it. Bridges are numbered along the chain shown (N, C = ends). [ ]: non-standard residue; d: D form. The star is where a group is joined. hPhe(3-Cl-4-CF3) = N[C@@H](CCc1ccc(C(F)(F)F)c(Cl)c1)C(=O)O; X28 = C#CCN([C@@H](Cc1ccc(C(F)(F)F)cc1)C(=O)[*:2])[*:1]; NPrPhe(4-CF3) = CCCN[C@@H](Cc1ccc(C(F)(F)F)cc1)C(=O)O; NMeGly(cPent) = CN[C@H](C(=O)O)C1CCCC1; NMeD = CN[C@@H](CC(=O)O)C(=O)O; NMeL = CN[C@@H](CC(C)C)C(=O)O; Morpholide = C1CN(*)CCO1; Ac5c = NC1(C(=O)O)CCCC1; Aze = O=C(O)[C@@H]1CCN1; NPrGly = CCCNCC(=O)O; Sar = CNCC(=O)O"}
{"molecule": "CC[C@H](C)[C@@H]1NC(=O)[C@H](CC)N(C)C(=O)C[C@@H](C(=O)N(C)C)N(C)C(=O)[C@H](C2CCCC2)N(C)C(=O)C2(CC(C)(C)C2)NC(=O)[C@@H]2C[C@H](C)CN2C(=O)[C@H](CCc2ccc(C(F)(F)F)c(Cl)c2)NC(=O)CN(C)C(=O)[C@H](Cc2ccc(C)cc2)N2CC/C=C\\C[C@@H](C2=O)N(C)C(=O)CN(C)C1=O", "note": "[PP1844]", "values": [{"measurement": "NRAS/KRAS (ratio of KD value for NRAS to KD value for KRAS)", "setting": "[1]; KD ratio, GDP-bound NRAS wild-type vs GDP-bound KRAS wild-type, SPR", "result": "A (a compound having 10 or more and less than 20 is denoted as A)"}, {"measurement": "HRAS/KRAS (ratio of KD value for HRAS to KD value for KRAS)", "setting": "[2]; KD ratio, GDP-bound HRAS wild-type vs GDP-bound KRAS wild-type, SPR", "result": "B (a compound having 3 or more and less than 10 is denoted as B)"}]}
{"molecule": "C#CCN1C(=O)CN(C)C(=O)CN(C)C(=O)[C@H]([C@@H](C)CC)NC(=O)[C@H](CC(C)C)N(C)C(=O)C[C@@H](C(=O)N2CCOCC2)N(C)C(=O)[C@H](C2CCCC2)N(C)C(=O)C2(CCCC2)NC(=O)[C@@H]2CCCN2C(=O)[C@H](CCc2ccc(C(F)(F)F)c(Cl)c2)NC(=O)CN(C)C(=O)[C@@H]1Cc1ccc(C(F)(F)F)cc1", "note": "[PP0130] ([NMeL]I[Sar][Sar][X28][Sar][hPhe(3-Cl-4-CF3)]P[Ac5c][NMeGly(cPent)][NMeD]-Morpholide; lactam N-11)", "values": [{"measurement": "NRAS/KRAS (ratio of KD for GDP-bound NRAS wild-type to KD for KRAS)", "setting": "[1]; SPR", "result": "C (A compound having a KD ratio of 0.1 or more and less than 3 is denoted as C)"}, {"measurement": "HRAS/KRAS (ratio of KD for GDP-bound HRAS wild-type to KD for KRAS)", "setting": "[2]; SPR", "result": "C (A compound having a KD ratio of 0.1 or more and less than 3 is denoted as C)"}]}
{"molecule": "CCCC[C@H]1C(=O)N[C@@H]([C@@H](C)CC)C(=O)N(C)CC(=O)N(C)[C@H]2C/C=C\\CCN(C2=O)[C@@H](Cc2ccc(C(F)(F)F)cc2)C(=O)N(C)CC(=O)N[C@@H](CCc2ccc(C(F)(F)F)c(OC)c2)C(=O)N2C[C@H](OCC)C[C@H]2C(=O)NC2(CCC2)C(=O)N(C)[C@@H](C2CCCC2)C(=O)N(C)[C@H](C(=O)N(C)CC)CC(=O)N1C", "note": "[PP2840]", "values": [{"measurement": "NRAS/KRAS (ratio of KD value with respect to GDP-bound NRAS wild-type protein to KD value with respect to KRAS)", "setting": "[1]", "result": "A (a compound having 10 or more and less than 20 is denoted as A)"}, {"measurement": "HRAS/KRAS (ratio of KD value with respect to GDP-bound HRAS wild-type protein to KD value with respect to KRAS)", "setting": "[2]", "result": "A (a compound having 10 or more and less than 20 is denoted as A)"}]}
{"molecule": "CCO[C@@H]1C[C@H]2C(=O)NC3(CCC3)C(=O)N(C)[C@@H](C3CCCC3)C(=O)N(C)[C@H](C(=O)N(C)C)CC(=O)N(C)[C@@H](CC3CCCC3)C(=O)N[C@@H]([C@@H](C)CC)C(=O)N(C)CC(=O)N(C)[C@H]3C/C=C\\CCN(C3=O)[C@@H](Cc3ccc(C)cc3)C(=O)N(C)CC(=O)N[C@@H](CCc3cc(C)c(C(F)F)c(C)c3)C(=O)N2C1", "note": "[PP2675]", "values": [{"measurement": "NRAS/KRAS (ratio of KD value with respect to GDP-bound NRAS wild-type protein to KD value with respect to KRAS)", "setting": "[1]", "result": "A (a compound having 10 or more and less than 20 is denoted as A)"}, {"measurement": "HRAS/KRAS (ratio of KD value with respect to GDP-bound HRAS wild-type protein to KD value with respect to KRAS)", "setting": "[2]", "result": "A (a compound having 10 or more and less than 20 is denoted as A)"}]}
{"molecule": "CCCN1CC(=O)N2CC[C@H]2C(=O)N(CCC)[C@@H](Cc2ccc(C(F)(F)F)cc2)C(=O)N(C)CC(=O)N[C@@H](CCc2ccc(C(F)(F)F)c(Cl)c2)C(=O)N2CCC[C@H]2C(=O)NC2(CCCC2)C(=O)N(C)[C@@H](C2CCCC2)C(=O)N(C)[C@H](C(=O)N2CCOCC2)CC(=O)N(C)[C@@H](CC(C)C)C(=O)N[C@@H]([C@@H](C)CC)C1=O", "note": "[PP0274] ([NMeL]I[NPrGly][Aze][NPrPhe(4-CF3)][Sar][hPhe(3-Cl-4-CF3)]P[Ac5c][NMeGly(cPent)][NMeD]-Morpholide; lactam N-11)", "values": [{"measurement": "NRAS/KRAS (ratio of KD for GDP-bound NRAS wild-type to KD for KRAS)", "setting": "[1]; SPR", "result": "C (A compound having a KD ratio of 0.1 or more and less than 3 is denoted as C)"}, {"measurement": "HRAS/KRAS (ratio of KD for GDP-bound HRAS wild-type to KD for KRAS)", "setting": "[2]; SPR", "result": "B (a compound having 3 or more and less than 10 is denoted as B)"}]}
{"molecule": "CC[C@H](C)[C@@H]1NC(=O)[C@H](CC(C)C)N(C)C(=O)C[C@@H](C(=O)N(C)CC)N(C)C(=O)[C@H](C2CCCC2)N(C)C(=O)C2(CC(C)(C)C2)NC(=O)[C@@H]2C[C@H](C)CN2C(=O)[C@H](CCc2cc(F)c(C(F)(F)F)c(F)c2)NC(=O)CN(C)C(=O)[C@H](Cc2ccc(C)cc2)N2CC/C=C\\C[C@@H](C2=O)N(C)C(=O)[C@@H]2CCCN2C1=O", "note": "[PP2411]", "values": [{"measurement": "NRAS/KRAS (ratio of KD value with respect to NRAS to KD value with respect to KRAS)", "setting": "[1]; [3]", "result": "A (a compound having 10 or more and less than 20 is denoted as A)"}, {"measurement": "HRAS/KRAS (ratio of KD value with respect to HRAS to KD value with respect to KRAS)", "setting": "[2]; [4]", "result": "A (a compound having 10 or more and less than 20 is denoted as A)"}]}
{"molecule": "CCO[C@@H]1C[C@H]2C(=O)NC3(CC(C)(C)C3)C(=O)N(C)[C@@H](C(CC)CC)C(=O)N(C)[C@H](C(=O)N(C)C)CC(=O)N(C)[C@@H](COC)C(=O)N[C@@H]([C@@H](C)CC)C(=O)N(C)CC(=O)N(C)[C@H]3C/C=C\\CCN(C3=O)[C@@H](CC3CCCCC3)C(=O)N(C)CC(=O)N[C@@H](CCc3ccc(C(F)(F)F)c(OC)c3)C(=O)N2C1", "note": "[PP2452]", "values": [{"measurement": "NRAS/KRAS (ratio of KD value with respect to NRAS to KD value with respect to KRAS)", "setting": "[1]; [3]", "result": "A (a compound having 10 or more and less than 20 is denoted as A)"}, {"measurement": "HRAS/KRAS (ratio of KD value with respect to HRAS to KD value with respect to KRAS)", "setting": "[2]; [4]", "result": "A (a compound having 10 or more and less than 20 is denoted as A)"}]}
